Measurements from US20240083903A1, “ARYL ETHER COMPOUNDS AS TEAD MODULATORS” (Merck Sharp& Dohme LLC, priority 2021, published 2024).

The molecules below were run on TEAD Reporter-MCF7 cell line (assay: YAP/TEAD cellular activity assay: inhibition of TEAD-Luc activity in TEAD Reporter-MCF7 cell line). Details: Homo sapiens, MCF7, 24 h, TEAD Reporter-MCF7 cells, 24 hours incubation with compound, luciferase readout.
Type: cell-based, human
Protocol: YAP/TEAD Cellular Activity Assay
Quantitation of Compound Potency on the Inhibition of TEAD-Luc Activity in TEAD Reporter-MCF7 Cell Line.
The TEAD Reporter-MCF7 cell line containing the firefly luciferase gene under the control of TEAD responsive elements stably integrated into the human breast cancer cell line was purchased from BPS Bioscience (Cat #60618). The cells were cultured with complete culture medium ([…], 1 mM sodium pyruvate, 10% fetal bovine serum, 10 ng/mL insulin and 400 ug/mL G418 sulfate) prior to the assay. For the assay, the cells were harvested, resuspended in the complete culture medium without G418, and seeded into white solid bottom 384-well cell culture microplates in 25 uL with 10,000 cells per well. The plates were incubated at 37° C. in a CO2 incubator for 20-24 hours and the compounds were then transferred from Echo LDV plates directly into the 384-well white tissue culture plates with an Echo. The plates were incubated at 37° C. in a CO2 incubator for 24 hours and equal volume of ONE-Glo™ EX Luciferase reagent (Promega, Cat #E8150) was added. After mixing on a shaker at room temperature for 10 minutes, the luciferase activity was measured with an Envision. The percentage inhibition and EC50 values of compounds were calculated with Spotfire.
Required Materials • 1. TEAD reporter-MCF-7 Cells (BPS Bioscience, #60618) • 2. Complete Cell Culture Medium (without selection antibiotics) • EMEM 89% (ATCC, #30-2003) • FBS 10% (Hyclone, #SH30088.03) • 1% Non essential amino acids (Gibco, • 1 mM sodium pyruvate (Gibco, • Pen/Strep, 1% (Gibco, #15140-122) • 10 ng/mL insulin (Sigma, #10516) • 3. Complete Cell Culture Medium (with selection antibiotics) • EMEM 89% (ATCC, #30-2003) • F1% Non essential amino acids (Gibco, • 1 mM sodium pyruvate (Gibco, • BS 10% (Hyclone, #SH30088.03) • 10 ng/mL insulin (Sigma, #10516) • 400 ug/mL G418 sulfate (Agilent, #200049-21) • 4. Miscellaneous tissue culture equipment and reagents. • 5. White solid 384-well tissue culture plate (Greiner, Cat #781080) • 6. One Glo EX luciferase assay system (Promega, #E8150)
The following table tabulates the biological data disclosed for the current invention. The biological data was collected using the methodology described above. For each compound, TEAD-Luc EC50 values are listed in nanomolar (nM) concentration units.

SMILES | EC50 [nM]
CNS(=O)(=O)c1ccc(Oc2ccc(C(F)(F)F)cc2)c(-c2cnn3c2CCCC3)c1 [2-16, N-methyl-3-(4,5,6,7-tetrahydropyrazolo[1,5-a]pyridin-3-yl)-4-[4-(trifluoromethyl)phenoxy]benzene-1-sulfonamide] | 631
CNS(=O)(=O)c1ccc(Oc2ccc(C(F)(F)F)cc2)c(-c2cn3c(n2)C(O)CC3)c1 (centres unmarked) [9-1, 3-(7-Hydroxy-6,7-dihydro-5H-pyrrolo[1,2-a]imidazol-2-yl)-N-methyl-4-(4-(trifluoromethyl)phenoxy)benzenesulfonamide] | 907
CNS(=O)(=O)c1ccc(Oc2ccc(C(F)(F)F)cc2)c(-c2cccc3c2OCC(=O)N3)c1 [2-26, N-methyl-3-(3-oxo-3,4-dihydro-2H-1,4-benzoxazin-8-yl)-4-[4-(trifluoromethyl)phenoxy]benzene-1-sulfonamide] | 3180
CNS(=O)(=O)c1ccc(Oc2ccc(C(F)(F)F)cc2)c(-c2nc3cc(OC)ccc3[nH]2)c1 [1-12, 3-(5-methoxy-1H-benzimidazol-2-yl)-N-methy1-4-[4-(trifluoromethyl)phenoxy]benzene-1-sulfonamide] | 5440
CNS(=O)(=O)c1ccc(Oc2ccc(C(F)(F)F)cc2)c(-c2cn3ccc(C(=O)OC)cc3n2)c1 [1-30, methyl 2-{5-(methylsulfamoyl)-2-[4-(trifluoromethyl)phenoxy]phenyl} imidazo[1,2-a]pyridine-7-carboxylate] | 7800
CNS(=O)(=O)c1ccc(Oc2ccc(C(F)(F)F)cc2)c(-c2cnc3ccc(Cl)nn23)c1 [1-23, 3-(6-chloroimidazo[1,2-b]pyridazin-3-yl)-N-methyl-4-[4-(trifluoromethyl)phenoxy]benzene-1-sulfonamide] | 3340
CNS(=O)(=O)c1ccc(Oc2ccc(C(F)(F)F)cc2)c(-c2[nH]nc3ccccc23)c1 [1-8, 3-(2H-indazol-3-yl)-N-methyl-4-[4-(trifluoromethyl)phenoxy]benzene-1-sulfonamide] | 2870
CNS(=O)(=O)c1ccc(Oc2ccc(C(F)(F)F)cc2)c(-c2ncn3c2CCCC3)c1 [1-37, N-methyl-3-(5,6,7,8-tetrahydroimidazo[1,5-a]pyridin-1-yl)-4-[4-(trifluoromethyl)phenoxy]benzene-1-sulfonamide] | 414
CNS(=O)(=O)c1ccc(Oc2ccc(C(F)(F)F)cc2)c(-c2cnc3[nH]ccc3c2)c1 [2-10, N-methyl-3-(1H-pyrrolo[2,3-b]pyridin-5-yl)-4-[4-(trifluoromethyl)phenoxy]benzene-1-sulfonamide] | 2420
CNS(=O)(=O)c1ccc(Oc2ccc(C(F)(F)F)cc2)c(-c2cnn3c2OCC(C)C3)c1 (centres unmarked) [2-17, N-methyl-3-(6-methyl-6,7-dihydro-5H-pyrazolo[5,1-b][1,3]oxazin-3-yl)-4-[4-(trifluoromethyl)phenoxy]benzene-1-sulfonamide] | 590
CNS(=O)(=O)c1ccc(Oc2ccc(C(F)(F)F)cc2)c(-c2ccc3nc(C)ccc3c2)c1 [2-31, N-methyl-3-(2-methylquinolin-6-yl)-4-[4-(trifluoromethyl)phenoxy]benzene-1-sulfonamide] | 663
CNS(=O)(=O)c1ccc(Oc2ccc(C(F)(F)F)cc2)c(-c2cnc3ccccn23)c1 [1-20, 3-(imidazo[1,2-a]pyridin-3-yl)-N-methyl-4-[4-(trifluoromethyl)phenoxy]benzene-1-sulfonamide] | 7140

Further lines, results first:

EC50 [nM] | SMILES
68.5 | CNS(=O)(=O)c1ccc(Oc2ccc(C(F)(F)F)cc2)c(-n2cc3c(n2)CCC3)c1 [6-2, 3-(5,6-dihydrocyclopenta[c]pyrazol-2(4H)-yl)-N-methyl-4-[4-(trifluoromethyl)phenoxy]benzene-1-sulfonamide]
34.1 | CNS(=O)(=O)c1ccc(Oc2ccc(C(F)(F)F)cc2)c(-c2cn3ccsc3n2)c1 [1-18, 3-(imidazo[2,1-b][1,3]thiazol-6-yl)-N-methyl-4-[4-(trifluoromethyl)phenoxy]benzene-1-sulfonamide]
315 | CNS(=O)(=O)c1ccc(Oc2cccc(C(F)(F)F)c2)c(-c2cnn3c2OCC3)c1 [1-49, 3-(2,3-dihydropyrazolo[5,1-b]oxazol-7-yl)-N-methyl-4-(3-(trifluoromethyl)phenoxy)benzenesulfonamide]
92.6 | CNS(=O)(=O)c1ccc(Oc2ccc(C(F)(F)F)cc2)c(-c2ccc3c(c2)NC(=O)CO3)c1 [2-22, N-methyl-3-(3-oxo-3,4-dihydro-2H-1,4-benzoxazin-6-yl)-4-[4-(trifluoromethyl)phenoxy]benzene-1-sulfonamide]
15.1 | CCc1ccc(Oc2ccc(S(=O)(=O)NC)cc2-c2cn3c(n2)CCC3)cc1 [4-9, 3-(6,7-dihydro-5H-pyrrolo [1,2-a]imidazol-2-yl)-4-(4-ethylphenoxy)-N-methylbenzene-1-sulfonamide]
15.2 | CNS(=O)(=O)c1ccc(Oc2ccc(S(F)(F)(F)(F)F)cc2)c(-c2cn3c(n2)CCC3)c1 [4-18, 3-(6,7-dihydro-5H-pyrrolo[1,2-a]imidazol-2-yl)-N-methyl-4-[4-(pentafluoro-lambda~6~-sulfanyl)phenoxy]benzene-1-sulfonamide]
5.5 | CNS(=O)(=O)c1ccc(Oc2ccc(C(C)C)cc2)c(-c2cn3c(n2)CCC3)c1 [4-8, 3-(6,7-dihydro-5H-pyrrolo [1,2-a]imidazol-2-yl)-N-methyl-4-[4-(propan-2-yl)phenoxy]benzene-1-sulfonamide]
104 | CNS(=O)(=O)c1ccc(Oc2ccc(Cl)cc2)c(-c2cnn3c2OCC3)c1 [1-47, 4-(4-chlorophenoxy)-3-(2,3-dihydropyrazolo[5,1-b]oxazol-7-yl)-N-methylbenzenesulfonamide]
64.4 | CNS(=O)(=O)c1ccc(Oc2ccc(C(F)(F)F)cc2)c(-c2cc3n(n2)CCN3)c1 [1-45, 3-(2,3-dihydro-1H-imidazo[1,2-b]pyrazol-6-yl)-N-methyl-4-[4-(trifluoromethyl)phenoxy]benzene-1-sulfonamide]
273 | CNS(=O)(=O)c1ccc(Oc2ccc(C(F)(F)F)cc2)c(-c2ccc3cccnc3c2)c1 [2-24, N-methyl-3-(quinolin-7-yl)-4-[4-(trifluoromethyl)phenoxy]benzene-1-sulfonamide]
236 | CNS(=O)(=O)c1ccc(Oc2ccc(C(F)(F)F)cc2)c(-c2cn3cccc(C)c3n2)c1 [1-33, N-methyl-3-(8-methylimidazo[1,2-a]pyridin-2-yl)-4-[4-(trifluoromethyl)phenoxy]benzene-1-sulfonamide]
49.8 | CNS(=O)(=O)c1ccc(Oc2ccc(C(F)(F)F)cn2)c(-c2cn3c(n2)CCC3)c1 [10-1, 3-(6,7-Dihydro-5H-pyrrolo[1,2-a]imidazol-2-yl)-N-methyl-4-((5-(trifluoromethyl)pyridin-2-yl)oxy)benzenesulfonamide]

Same assay, conditions: Homo sapiens; TEAD Reporter-MCF7 cells, 24 hours incubation with compound, luciferase readout

SMILES | EC50 [nM]
CNS(=O)(=O)c1ccc(Oc2ccc(Cl)cc2)c(-c2cc3n(n2)CCC3)c1 [8-1, 4-(4-Chlorophenoxy)-3-(5,6-dihydro-4H-pyrrolo[1,2-b]pyrazol-2-yl)-N-methylbenzene-1-sulfonamide] | 10.4
CC(C)NS(=O)(=O)c1ccc(Oc2ccc(C(F)(F)F)cc2)c(-c2cn3c(n2)CCC3)c1 [7-1, 3-(6,7-dihydro-5H-pyrrolo[1,2-a]imidazol-2-yl)-N-(propan-2-yl)-4-[4-(trifluoromethyl)phenoxy]benzene-1-sulfonamide] | 138

Same assay, conditions: TEAD Reporter-MCF7 cells, 24 hours incubation with compound, luciferase readout

EC50 [nM] | SMILES
26.1 | CNS(=O)(=O)c1ccc(Oc2ccc(C(F)(F)F)cc2)c(-c2cn3c(n2)CC(C)C3)c1 (single isomer, unassigned) [1-41, (R)- or (S)-N-methyl-3-(6-methyl-6,7-dihydro-5H-pyrrolo [1,2-a]imidazol-2-yl)-4-[4-(trifluoromethyl)phenoxy]benzene-1-sulfonamide]
7.4 | CNS(=O)(=O)c1ccc(Oc2ccc(C(F)(F)F)cc2)c(-c2cn3c(n2)OC(C)C3)c1 (single isomer, unassigned) [1-39, (S)- or (R)-N-methyl-3-(2-methyl-2,3-dihydroimidazo[2,1-b] [1,3]oxazol-6-yl)-4-[4-(trifluoromethyl)phenoxy]benzene-1-sulfonamide]
8.1 | CNS(=O)(=O)c1ccc(Oc2ccc(C(F)(F)F)cc2)c(-c2cn3c(n2)C(C)CC3)c1 (single isomer, unassigned) [1-43, (R)- or (S)-N-methyl-3-(7-methyl-6,7-dihydro-5H-pyrrolo[1,2-a]imidazol-2-yl)-4-[4-(trifluoromethyl)phenoxy]benzene-1-sulfonamide]
